Source: patent US20030032587A1, “Urocortin peptides” (The Salk Institute for Biological Studies, priority 1995, published 2003)
Bridges are numbered along the chain shown (N, C = ends). Where no end group is shown, it is not given here. [ ]: non-standard residue; d: D form.

Tests used:
[1] = tested on: primary murine anterior pituitary cells; type: cell-based; conditions: for ACTH secretion in vitro, times as effective as r/hCRF (confidence limits): anterior pituitary cell cultures, relative to r/hCRF; for stimulates the secretion of ACTH and β-END-LI (β-endorphin): result in words
Text: (§1) A straightforward assay using rat anterior pituitary cells in monolayer culture can be carried out to determine whether a candidate peptide thereof will function as a CRF agonist and stimulate ACTH secretion by activating CRF receptors on such cells. The procedure which is used is that generally set forth in Endocrinology, 91, supra. A very similar assay is used to test for antagonistic properties, using a challenge dose of oCRF or the like.
To test the ability of purified Ucn or another candidate Ucn-like peptide to function as a CRF agonist and to promote ACTH production and/or secretion, cultures of dispersed primary murine anterior pituitary cells (0.15×10^6 cells/well are used), as generally described in Vale et al. Meth. Enzym., 103, 565-577 (1983), and in Endocrinology, 91, 562 (1972). These cultures are maintained in 0.5 ml/well of β-PJ (a reagent available from Kansas City Biochemicals) containing 2% fetal bovine serum. On the morning of culture day 5, the cells are washed 3 times with β-PJ containing 0.1% bovine serum albumin and then incubated for 1 hour at 37° C. in the same medium. The medium is then replaced with Ucn, or an analog thereof, diluted in β-PJ containing 0.1% bovine serum albumin. Incubations are terminated after 3 hours, at which time the medium is removed and stored at −20° C. until ACTH radioimmunoassays are performed using a suitable kit, such as that commercially available from Diagnostic Products Corporation of Los Angeles, Calif. Secreted ACTH is measured using Allfit computer program with results expressed as the average±s.e.m. of 3 replicate bioassays.

[2] = tested on: mammalian systemic blood pressure; assay: mammalian vasodilatory-hypotensive activity; type: in vivo; conditions: result in words
[3] = tested on: rat anterior pituitary cells; assay: ACTH secretion by anterior pituitary cell cultures in the presence of a challenge dose of ovine CRF (antagonist test); type: cell-based; conditions: result in words; test not specified
Text: as §1
An in vivo test measuring elevation of mean arterial blood pressure as a result of iv injection is also simply and straightforwardly performed.

[4] = target: CRF receptors on anterior pituitary cells in culture; assay: cell-based or functional assay

Molecule | ACTH secretion in vitro, times as effective as r/hCRF (confidence limits) [1] | stimulates the secretion of ACTH and β-END-LI (β-endorphin) [1] | vasodilatory-hypotensive activity, including lowering systemic blood pressure and stimulating the secretion of ACTH [2] | bioactivity as Ucn antagonists [3] | antagonism of ACTH secretion under a challenge dose of ovine CRF, potency relative to the Standard Antagonist (times Standard Antagonist) [4]
Ac-Pro-D-Pro-Leu-Ser-Ile-Asp-Leu-Thr-D-Phe-His-Leu-Leu-Arg-Thr-Leu-Leu-Glu-Leu-Ala-Arg-Thr-Gln-Ser-Gln-Arg-Glu-Glu-Ala-Glu-Lys-Asn-Arg-Ile-Ile-Phe-Asp-Ser-Val-NH2 (Ac-P[dP]LSIDLT[dF]HLLRTLLELARTQSQREEAEKNRIIFDSV-NH2; lactam 27-30 (inferred)) | 9.90 (4.48-22.85) | stimulates the secretion of ACTH and β-END-LI | causes vasodilatory-hypotensive activity |  | 
Ac-Pro-D-Ser-Leu-Ser-Ile-Asp-Leu-Thr-D-Phe-His-Leu-Leu-Arg-Thr-Leu-Leu-Glu-Leu-Ala-Arg-Thr-Gln-Ser-Gln-Arg-Glu-Glu-Ala-Glu-Lys-Asn-Arg-Ile-Ile-Phe-Asp-Ser-Val-NH2 (Ac-P[dS]LSIDLT[dF]HLLRTLLELARTQSQREEAEKNRIIFDSV-NH2; lactam 27-30 (inferred)) | 5.69 (2.43-14.49) | stimulates the secretion of ACTH and β-END-LI | causes vasodilatory-hypotensive activity |  | 
Ac-Pro-Ser-Leu-Ser-Ile-Asp-Leu-Thr-D-Phe-His-Leu-Leu-Arg-Thr-Leu-Leu-Glu-Leu-Ala-Arg-Thr-Gln-Ser-Gln-Arg-Glu-Glu-Ala-D-Glu-Lys-Asn-Arg-Ile-Ile-Phe-Asp-Ser-Val-NH2 (Ac-PSLSIDLT[dF]HLLRTLLELARTQSQREEA[dE]KNRIIFDSV-NH2; lactam 27-30 (inferred)) | 6.14 (2.83-14.05) | stimulates the secretion of ACTH and β-END-LI | causes vasodilatory-hypotensive activity |  | 
Ac-Pro-Ser-Leu-Ser-Ile-Asp-Leu-Thr-Phe-His-Leu-Leu-Arg-Thr-Leu-Leu-Glu-Leu-Ala-Arg-Thr-Gln-Ser-Gln-Arg-Glu-Arg-Ala-Glu-Gln-Asn-Arg-Ile-Ile-Phe-Asp-Ser-Val-NH2 (Ac-PSLSIDLTFHLLRTLLELARTQSQRERAEQNRIIFDSV-NH2) [[Ac-Pro^3]-hUcn(3-40)] |  | stimulates the secretion of ACTH and β-END-LI | causes vasodilatory-hypotensive activity |  | 
H-Asn-Pro-Ser-Leu-Ser-Ile-Asp-Leu-Thr-Phe-His-Leu-Leu-Arg-Thr-Leu-Leu-Glu-Leu-Ala-Arg-Thr-Gln-Ser-Gln-Arg-Glu-Arg-Ala-Glu-Gln-Asn-Arg-Ile-Ile-Phe-Asp-Ser-Val-NH2 (H-NPSLSIDLTFHLLRTLLELARTQSQRERAEQNRIIFDSV-NH2) [hUcn(2-40)] |  |  | significant mammalian vasodilatory-hypotensive activity |  | 
H-Asp-Asn-Pro-Ser-Leu-Ser-Ile-Asp-Leu-Thr-Phe-His-Leu-Leu-Arg-Thr-Leu-Leu-Glu-Leu-Ala-Arg-Thr-Gln-Ser-Gln-Arg-Glu-Arg-Ala-Glu-Gln-Asn-Arg-Ile-Ile-Phe-Asp-Ser-Val-NH2 (H-DNPSLSIDLTFHLLRTLLELARTQSQRERAEQNRIIFDSV-NH2) [Human Ucn(1-40)] | 3.10 (1.41-6.65) |  | significant mammalian vasodilatory-hypotensive activity |  | 
H-DNPSLSIDLT[dF]HLLRTLLELARTQSQRERAEQNRIIFDSV-NH2 [[D-Phe^11]-hUcn] |  |  | significant mammalian vasodilatory-hypotensive activity |  | 
H-Tyr-Asp-Asp-Pro-Pro-Leu-Ser-Ile-Asp-Leu-Thr-Phe-His-Leu-Leu-Arg-Thr-Leu-Leu-Glu-Leu-Ala-Arg-Thr-Gln-Ser-Gln-Arg-Glu-Arg-Ala-Glu-Gln-Asn-Arg-Ile-Ile-Phe-Asp-Ser-val-NH2 [[Tyr^∘]rUcn(1-40)] | 2.20 (1.28-3.88) |  | significant mammalian vasodilatory-hypotensive activity |  | 
H-[dY]DNPSLSIDLTFHLLRTLLELARTQSQRERAEQNRIIFDSV-NH2 [[D-Tyr^∘]hUcn(1-40)] | 1.23 (0.60-2.54) |  | significant mammalian vasodilatory-hypotensive activity |  | 
Ucn (10-40) (TFHLLRTLLELARTQSQRERAEQNRIIFDSV; ends and bridges not checked; UniProt P55089 92-122, looked up, fragment) |  |  |  | bioactivity as Ucn antagonists | 
[Ac-Thr^10]Ucn(10-40) |  |  |  | bioactivity as Ucn antagonists | 
[dP][dF]HLLRTLLELARTQSQREEA[dE]KNRIIFDSV-NH2 (lactam 20-23; N-terminus assumed; SMILES CC[C@H](C)[C@H](NC(=O)[C@H](CCCNC(=N)N)NC(=O)[C@H](CC(N)=O)NC(=O)[C@@H]1CCCCNC(=O)CC[C@H](NC(=O)[C@H](CCC(=O)O)NC(=O)[C@H](CCCNC(=N)N)NC(=O)[C@H](CCC(N)=O)NC(=O)[C@H](CO)NC(=O)[C@H](CCC(N)=O)NC(=O)[C@@H](NC(=O)[C@H](CCCNC(=N)N)NC(=O)[C@H](C)NC(=O)[C@H](CC(C)C)NC(=O)[C@H](CCC(=O)O)NC(=O)[C@H](CC(C)C)NC(=O)[C@H](CC(C)C)NC(=O)[C@@H](NC(=O)[C@H](CCCNC(=N)N)NC(=O)[C@H](CC(C)C)NC(=O)[C@H](CC(C)C)NC(=O)[C@H](Cc2c[nH]cn2)NC(=O)[C@@H](Cc2ccccc2)NC(=O)[C@H]2CCCN2)[C@@H](C)O)[C@@H](C)O)C(=O)N[C@@H](C)C(=O)N[C@H](CCC(=O)O)C(=O)N1)C(=O)N[C@H](C(=O)N[C@@H](Cc1ccccc1)C(=O)N[C@@H](CC(=O)O)C(=O)N[C@@H](CO)C(=O)N[C@H](C(N)=O)C(C)C)[C@@H](C)CC) [(cyclo 29-32) [D-Pro10,D-Phe11, Glu29, D-Glu31, Lys32]-Ucn(10-40)] |  |  |  |  | 4.99
P[dF]HLLRTLLELARTQSQREEA[dE]KNRIIFDSV-NH2 (lactam 20-23; N-terminus assumed; SMILES CC[C@H](C)[C@H](NC(=O)[C@H](CCCNC(=N)N)NC(=O)[C@H](CC(N)=O)NC(=O)[C@@H]1CCCCNC(=O)CC[C@H](NC(=O)[C@H](CCC(=O)O)NC(=O)[C@H](CCCNC(=N)N)NC(=O)[C@H](CCC(N)=O)NC(=O)[C@H](CO)NC(=O)[C@H](CCC(N)=O)NC(=O)[C@@H](NC(=O)[C@H](CCCNC(=N)N)NC(=O)[C@H](C)NC(=O)[C@H](CC(C)C)NC(=O)[C@H](CCC(=O)O)NC(=O)[C@H](CC(C)C)NC(=O)[C@H](CC(C)C)NC(=O)[C@@H](NC(=O)[C@H](CCCNC(=N)N)NC(=O)[C@H](CC(C)C)NC(=O)[C@H](CC(C)C)NC(=O)[C@H](Cc2c[nH]cn2)NC(=O)[C@@H](Cc2ccccc2)NC(=O)[C@@H]2CCCN2)[C@@H](C)O)[C@@H](C)O)C(=O)N[C@@H](C)C(=O)N[C@H](CCC(=O)O)C(=O)N1)C(=O)N[C@H](C(=O)N[C@@H](Cc1ccccc1)C(=O)N[C@@H](CC(=O)O)C(=O)N[C@@H](CO)C(=O)N[C@H](C(N)=O)C(C)C)[C@@H](C)CC) [(cyclo 29-32) [Pro10,D-Phe11, Glu29,D-Glu31, Lys32]-Ucn(10-40)] |  |  |  |  | 2.74
